Data set [1] concerns the target T1, D(2) dopamine receptor (Rattus norvegicus, UniProt P61169). In words: Evaluated in vitro for the affinity towards Dopamine receptor D2 of rat striatal tissue.
Data set [2] can be described thus: Maximum […] (Bmax) was determined. It is filed as ADME, organism-based. The following applies: in vivo.
Data set [3] concerns the target T1, D(2) dopamine receptor. The data set can be described thus: Competitive binding assay against Dopamine receptor D2 in rat striatal membranes and [125I]-IBF radioligand. It is filed as cell membranes, Striatum, Membrane.

The structures appear in SMILES notation.

T1 sequence (P61169 whole entry): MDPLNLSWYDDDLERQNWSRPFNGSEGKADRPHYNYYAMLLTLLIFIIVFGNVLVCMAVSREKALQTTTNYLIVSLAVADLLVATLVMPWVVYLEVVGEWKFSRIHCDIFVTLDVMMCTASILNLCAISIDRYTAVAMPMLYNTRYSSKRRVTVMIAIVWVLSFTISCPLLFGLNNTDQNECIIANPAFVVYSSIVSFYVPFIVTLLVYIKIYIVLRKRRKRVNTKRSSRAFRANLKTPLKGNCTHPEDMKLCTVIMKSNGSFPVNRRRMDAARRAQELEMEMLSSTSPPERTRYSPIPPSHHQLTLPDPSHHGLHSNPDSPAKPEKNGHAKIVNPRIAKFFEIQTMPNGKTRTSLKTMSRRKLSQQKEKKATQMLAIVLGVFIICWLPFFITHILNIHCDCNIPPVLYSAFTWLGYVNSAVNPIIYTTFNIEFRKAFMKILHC

The compound `CN1CN(c2ccccc2)C2(CCN(CCCC(=O)c3ccc(F)cc3)CC2)C1=O` [MESPIPERONE] had a dissociation constant (Kd) on D(2) dopamine receptor [1] of 0.097 nM. The same compound came in with a Bmax in data set [2] of 16.6 pM/g. At D(2) dopamine receptor [1], `O=C(CCCN1CCC2(CC1)C(=O)NCN2c1ccccc1)c1ccc(F)cc1I` came in with a Kd of 0.25 nM. The compound `NC1CCc2cc(O)c(O)cc2C1` (racemic) registered a Ki on D(2) dopamine receptor [3] of 65.7 nM. On D(2) dopamine receptor [1], `CCN1CCC[C@H]1CNC(=O)c1c(OC)ccc(I)c1O` [IOLOPRIDE] yielded a dissociation constant (Kd) of 0.43 nM.

The values are drawn from ChEMBL document CHEMBL1125116 (J Med Chem, 1990).
